The record followed here is PubChem BioAssay (NCI).

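1) Cells in 96-well plates. 2) Compound, 48 h, 5 concentrations. 3) Linear interpolation between surrounding doses. 4) Unreached endpoint = highest concentration. GI50: concentration for 50% inhibition of growth. At the TGI there is no net growth.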 Bounds are passed on as bounds.

Test systems include A549 NSCLC; HOP-92 NSCLC; IGROV1 ovarian; NCI-H460 lung; PC-3 prostate; SK-MEL-28 melanoma; SW-620 colon; TK-10 renal; HL-60(TB) leukemia; SR leukemia.
Experiment in all cases: NCI anticancer screen, dose series, 48 h

As to `CCCCCC(=O)OCC1(CO)C/C(=C/CC(C(C)C)C(C)C)C(=O)O1` (stereo unspecified), the TGI in the test on A549 NSCLC was above 75 µM; in the test with HOP-92 NSCLC, above 75 µM; in the test on IGROV1 ovarian it was 37.2 µM; in the test with NCI-H460 lung, above 75 µM; in the test with PC-3 prostate it was above 75 µM; in the test on SK-MEL-28 melanoma, above 75 µM. The TGI in the test on SW-620 colon and with TK-10 renal was above 75 µM in each case.

On to H-KIFKKFKTIIKKVWRIFGRF-NH2, for which the GI50 with HL-60(TB) leukemia is 5.23 µM; in the test on HOP-92 NSCLC, 2 µM; in the test on SK-MEL-28 melanoma it was 2.21 µM; in the test on SR leukemia, 2.72 µM. In addition, the TGI in the test on HL-60(TB) leukemia was 57.1 µM; with HOP-92 NSCLC, 4.67 µM; in the test with SK-MEL-28 melanoma, 5.02 µM; with SR leukemia, above 100 µM.

Consider `O=C(O)CCC(NC(=O)/C(=C/c1ccccc1)NC(=O)c1ccccc1)C(=O)O` (stereo unspecified), for which the TGI with A549 NSCLC, in the test with HL-60(TB) leukemia, with HOP-92 NSCLC, with IGROV1 ovarian, in the test on NCI-H460 lung and with PC-3 prostate was above 100 µM each time. For the same compound, the TGI with SK-MEL-28 melanoma, with SW-620 colon and in the test with TK-10 renal was above 100 µM each time.

Consider `COc1ccc(OC)c([N+](=O)[O-])c1-c1nc2sc(C)cn2c1/C=N/N=C(N)N`, for which the TGI was above 100 µM with A549 NSCLC; 47.8 µM in the test with HOP-92 NSCLC; 33 µM in the test with IGROV1 ovarian; above 100 µM in the test with NCI-H460 lung; above 100 µM with PC-3 prostate; 43.5 µM with SK-MEL-28 melanoma. Further, the TGI with SW-620 colon was above 100 µM; in the test on TK-10 renal it was 43.3 µM.

Regarding `O=c1[nH]c(=O)c2c([nH]1)[nH]c1ccccc12`, the TGI in the test on A549 NSCLC, in the test with HOP-92 NSCLC, in the test on IGROV1 ovarian, in the test with SR leukemia, with SW-620 colon and with TK-10 renal was above 100 µM each time.

On to `CCN(CC)CCC1(C(=O)OC)SCCc2ccc(C)cc21` (stereo unspecified), for which the TGI in the test with A549 NSCLC, with HOP-92 NSCLC, in the test on IGROV1 ovarian, with NCI-H460 lung, in the test on PC-3 prostate and in the test with SK-MEL-28 melanoma was above 100 µM each time. In addition, the TGI in the test on SR leukemia, in the test on SW-620 colon and in the test on TK-10 renal was above 100 µM each time.

Consider `CN(C)CC(C)(C)C(=O)/C=C/c1ccccc1`, for which the TGI in the test with A549 NSCLC was above 100 µM; in the test with HL-60(TB) leukemia, 26.7 µM; with HOP-92 NSCLC, 24.5 µM; in the test with IGROV1 ovarian it was 59.7 µM; with NCI-H460 lung, 74.6 µM; in the test on SK-MEL-28 melanoma it was 31 µM. The figures for the TGI in the test on SW-620 colon and in the test with TK-10 renal were 31.1 µM and 32.1 µM, respectively.

As for `NC(=O)c1nnc2c(F)cccc2c1N`, the TGI in the test on A549 NSCLC, in the test with HL-60(TB) leukemia, in the test with IGROV1 ovarian, in the test on NCI-H460 lung, in the test with PC-3 prostate and in the test with SR leukemia was above 100 µM in each case. Moreover, the TGI in the test on SW-620 colon and in the test on TK-10 renal was above 100 µM in each case.

For the compound `NS(=O)(=O)c1ccc(NS(=O)(=O)c2ccc(NC(=O)N(c3ccccc3)c3ccccc3)cc2)cc1`, the TGI in the test with A549 NSCLC, in the test with HOP-92 NSCLC, in the test on IGROV1 ovarian, in the test with NCI-H460 lung, in the test on PC-3 prostate and with SK-MEL-28 melanoma was above 100 µM throughout. Further, the TGI with SW-620 colon and with TK-10 renal was above 100 µM in each case.

As for `c1ccc2c(c1)[C@@H]1O[C@@H]1[C@@]13O[C@@]21[C@H]1O[C@H]1c1ccccc13`, the TGI worked out at 47 µM with A549 NSCLC; 41 µM with HL-60(TB) leukemia; 23.4 µM in the test on HOP-92 NSCLC; 29.3 µM in the test with IGROV1 ovarian; 74.9 µM in the test on NCI-H460 lung; 30 µM in the test on PC-3 prostate. Moreover, the TGI in the test with SK-MEL-28 melanoma is 41.2 µM; with SW-620 colon it was 39.5 µM; in the test on TK-10 renal it was 62.2 µM.

`CC1[C@@H]2C[C@@H]3O[C@@]34[C@H]3CCC5Cc6nc7c(nc6C[C@@]5(C)C3(O)CC(=O)[C@@]24CO[C@]12OC(C)(C)CC2O)CC1CC[C@@H]2C3=C[C@H]4O[C@@]5(O[C@@](C)(CO)C[C@@H]5O)C(C)[C@@]4(O)[C@]3(C)[C@@H](O)CC2[C@]1(C)C7` (stereo partly specified): the TGI was 1.16 µM in the test with A549 NSCLC; 0.0305 µM with HL-60(TB) leukemia; 0.976 µM with HOP-92 NSCLC; above 3.52 µM in the test on IGROV1 ovarian; 0.479 µM in the test on NCI-H460 lung; 0.49 µM in the test with SW-620 colon.

On to `CC1CC2OC(=N)C1(C#N)C2(C#N)C#N` (stereo unspecified), for which the TGI with A549 NSCLC was above 100 µM; in the test on HOP-92 NSCLC it was 36 µM; in the test on IGROV1 ovarian, 51.4 µM; in the test with PC-3 prostate it was 71.7 µM; in the test with SK-MEL-28 melanoma, above 100 µM; in the test on SR leukemia it was above 100 µM. Further, the TGI is above 100 µM with SW-620 colon and 71.6 µM in the test with TK-10 renal.

Take `Fc1sc2c(c1F)C1CCC2C1` (stereo unspecified): the TGI in the test with A549 NSCLC, in the test on HOP-92 NSCLC, in the test with IGROV1 ovarian, with NCI-H460 lung, in the test with PC-3 prostate and with SK-MEL-28 melanoma was above 100 µM throughout. The TGI with SW-620 colon and in the test on TK-10 renal was above 100 µM each time.

Turning to `COc1cc(OC)cc(-c2nc3ccccc3c(=O)[nH]2)c1`, the TGI in the test on A549 NSCLC, in the test with HL-60(TB) leukemia, in the test on HOP-92 NSCLC, in the test on IGROV1 ovarian, in the test with NCI-H460 lung and with PC-3 prostate was above 100 µM in each case. Besides, the TGI with SK-MEL-28 melanoma, with SW-620 colon and with TK-10 renal was above 100 µM throughout.

Consider `CC1CC/C(=C\c2ccc(F)cc2)C2=C1C(c1ccc(F)cc1)NC(=S)N2` (stereo unspecified), for which the TGI in the test on HL-60(TB) leukemia, with IGROV1 ovarian, in the test with NCI-H460 lung, with PC-3 prostate, in the test on SK-MEL-28 melanoma and in the test on SW-620 colon was above 100 µM each time. Besides, in the test with TK-10 renal, the TGI is above 100 µM.

As for `CN(C)CCSc1nccc(-c2ccc(-c3ccnc(SCCN(C)C)n3)s2)n1`, the TGI with A549 NSCLC is 31.7 µM; in the test with HL-60(TB) leukemia, 6.01 µM; in the test with HOP-92 NSCLC, 28.1 µM; in the test with IGROV1 ovarian, 28.8 µM; in the test on NCI-H460 lung it was 9.86 µM; with SK-MEL-28 melanoma, 36.2 µM. Further, the TGI with SW-620 colon worked out at 18.1 µM.
